Assay results published in ChEMBL document CHEMBL1130048, “Biological and conformational examination of stereochemical modifications using the template melanotropin peptide, Ac-Nle-c[Asp-His-Phe-Arg-Trp-Ala-Lys]-NH2, on human melanocortin receptors” (J Med Chem, 1997).

Key:
Melanocortin receptor 4 [1] = molecular target: T1, Melanocortin receptor 4 (Homo sapiens, UniProt P32245); test: Inhibitory concentration against human Melanocortin 4 receptor (hMC4R)
Melanocortin receptor 3 [2] = molecular target: T2, Melanocortin receptor 3 (Homo sapiens, UniProt P41968); test: Inhibitory concentration against human Melanocortin 3 receptor (hMC3R)
[3] = molecular target: T3, Melanocyte-stimulating hormone receptor (Homo sapiens, UniProt Q01726); test: Inhibitory concentration against human Melanocortin 1 receptor (hMC1R)
Melanocortin receptor 4 [4] = molecular target: T1, Melanocortin receptor 4; test: Effective concentration for intracellular cAMP accumulation in L-cells expressing Melanocortin 4 receptor; type: functional, cell-based
Melanocortin receptor 5 = Melanocortin receptor 5 (Homo sapiens, UniProt P33032); test: Inhibitory concentration against human Melanocortin 5 receptor (hMC5R)
[5] = molecular target: T3, Melanocyte-stimulating hormone receptor; test: Effective concentration for intracellular cAMP accumulation in L-cells expressing Melanocortin 1 receptor; type: functional, cell-based
Melanocortin receptor 3 [6] = molecular target: T2, Melanocortin receptor 3; test: Effective concentration that was able to generate 50% maximal intracellular cAMP in L-cells transfected with Melanocortin 3 receptor; type: functional, cell-based

T3 sequence (Q01726 whole entry): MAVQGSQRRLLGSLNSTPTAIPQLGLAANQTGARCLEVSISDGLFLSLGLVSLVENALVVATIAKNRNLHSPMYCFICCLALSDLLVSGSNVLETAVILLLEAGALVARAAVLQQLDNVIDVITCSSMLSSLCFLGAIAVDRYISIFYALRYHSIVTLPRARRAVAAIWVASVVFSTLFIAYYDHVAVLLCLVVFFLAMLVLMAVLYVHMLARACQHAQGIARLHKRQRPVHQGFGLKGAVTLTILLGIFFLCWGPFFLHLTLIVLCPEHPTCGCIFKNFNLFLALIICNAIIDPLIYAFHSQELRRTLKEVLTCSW
T2 sequence (P41968 whole entry): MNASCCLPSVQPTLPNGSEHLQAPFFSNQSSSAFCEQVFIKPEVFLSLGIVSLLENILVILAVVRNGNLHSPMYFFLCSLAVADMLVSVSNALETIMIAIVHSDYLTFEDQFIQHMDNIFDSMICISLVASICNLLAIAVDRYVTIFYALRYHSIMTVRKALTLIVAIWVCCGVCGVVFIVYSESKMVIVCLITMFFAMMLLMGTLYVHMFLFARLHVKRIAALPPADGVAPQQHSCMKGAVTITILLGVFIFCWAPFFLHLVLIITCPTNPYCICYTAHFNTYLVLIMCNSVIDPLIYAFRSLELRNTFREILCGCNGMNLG
T1 sequence (P32245 whole entry): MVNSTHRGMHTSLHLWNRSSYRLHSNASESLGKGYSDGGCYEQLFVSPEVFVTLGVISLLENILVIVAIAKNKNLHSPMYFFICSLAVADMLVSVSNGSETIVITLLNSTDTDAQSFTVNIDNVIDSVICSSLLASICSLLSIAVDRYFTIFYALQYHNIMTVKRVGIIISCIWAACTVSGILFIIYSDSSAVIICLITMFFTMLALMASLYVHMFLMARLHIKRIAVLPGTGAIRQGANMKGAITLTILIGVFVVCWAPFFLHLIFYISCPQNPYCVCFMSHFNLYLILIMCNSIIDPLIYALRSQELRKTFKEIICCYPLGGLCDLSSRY
Sequence of Melanocortin receptor 5 (P33032 whole entry): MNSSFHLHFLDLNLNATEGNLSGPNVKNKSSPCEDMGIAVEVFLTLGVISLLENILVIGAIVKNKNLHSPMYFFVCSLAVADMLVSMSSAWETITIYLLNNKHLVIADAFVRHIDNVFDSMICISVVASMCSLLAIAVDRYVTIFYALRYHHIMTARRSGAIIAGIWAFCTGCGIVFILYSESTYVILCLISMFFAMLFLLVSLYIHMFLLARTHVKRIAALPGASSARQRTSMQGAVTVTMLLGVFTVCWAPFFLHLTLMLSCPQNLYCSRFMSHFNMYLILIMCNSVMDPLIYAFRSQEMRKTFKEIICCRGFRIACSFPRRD

Row | IC50 [3] [nM] | EC50 [5] [nM] | SMILES | IC50 (Melanocortin receptor 4 [1]) [nM] | IC50 (Melanocortin receptor 3 [2]) [nM] | EC50 (Melanocortin receptor 4 [4]) [nM] | IC50 (Melanocortin receptor 5) [nM] | EC50 (Melanocortin receptor 3 [6]) [nM]
1 | 264 | 34.2 | CCCC[C@H](NC(C)=O)C(=O)N[C@@H]1CC(=O)NCCCC[C@@H](C(N)=O)NC(=O)[C@H](C)NC(=O)[C@@H](Cc2c[nH]c3ccccc23)NC(=O)[C@H](CCCNC(=N)N)NC(=O)[C@H](Cc2ccccc2)NC(=O)[C@H](Cc2cnc[nH]2)NC1=O | – | – | – | – | –
2 | 0.91 | 0.3 | CCCC[C@H](NC(C)=O)C(=O)N[C@H]1CC(=O)NCCCC[C@@H](C(N)=O)NC(=O)[C@H](C)NC(=O)C(Cc2c[nH]c3ccccc23)NC(=O)[C@H](CCCN=C(N)N)NC(=O)[C@H](Cc2ccccc2)NC(=O)[C@H](Cc2c[nH]cn2)NC1=O (single isomer, unassigned) | – | – | – | – | –
3 | 22.4 | 2.61 | CCCC[C@H](NC(C)=O)C(=O)N[C@H]1CC(=O)NCCCC[C@@H](C(N)=O)NC(=O)[C@H](C)NC(=O)C(Cc2c[nH]c3ccccc23)NC(=O)[C@H](CCCN=C(N)N)NC(=O)C(Cc2ccccc2)NC(=O)[C@H](Cc2c[nH]cn2)NC1=O (single isomer, unassigned) | – | – | – | – | –
4 | 0.35 | 0.098 | CCCC[C@H](NC(C)=O)C(=O)N[C@H]1CC(=O)NCCCC[C@@H](C(N)=O)NC(=O)[C@H](C)NC(=O)C(Cc2c[nH]c3ccccc23)NC(=O)[C@H](CCCN=C(N)N)NC(=O)[C@@H](Cc2ccccc2)NC(=O)[C@H](Cc2c[nH]cn2)NC1=O (single isomer, unassigned) | – | – | – | – | –

Row | SMILES | IC50 [3] [nM] | EC50 [5] [nM] | IC50 (Melanocortin receptor 4 [1]) [nM] | IC50 (Melanocortin receptor 3 [2]) [nM] | EC50 (Melanocortin receptor 4 [4]) [nM] | IC50 (Melanocortin receptor 5) [nM] | EC50 (Melanocortin receptor 3 [6]) [nM]
5 | CC(=O)N[C@@H]1CC(=O)NCCCC[C@H](C(N)=O)NC(=O)[C@@H](C)NC(=O)[C@H](Cc2c[nH]c3ccccc23)NC(=O)[C@@H](CCCNC(=N)N)NC(=O)[C@H](Cc2ccccc2)NC(=O)[C@@H](Cc2cnc[nH]2)NC1=O | 1.94 | 13.4 | 2.03 | 102 | 2.92 | > 1000 | 88.5
